In test [1] the target is T1, HCV NS3/4A protease complex (BMS strain) (UniProt P27958).
T1 construct: for H77 and J4L6S; fused on or other part: Probably a three-lysine solubilising tail at the C-terminus of NS4A and a His tag from pET21b (Ni-NTA purification); These are printed for the H77 and J4L6S constructs and only inferred for BMS
The test can be described thus: Recombinant HCV NS3/4A protease complex FRET peptide assay (BMS strain). Type of test: biochemical, Hepatitis C virus (genotype 1a. The following applies: read-out: IC50 (uuM); NS3/4A BMS strain; activity range class. The source says: Serum from an HCV-infected patient was obtained from Dr. T. Wright, San Francisco Hospital. An engineered full-length cDNA (compliment deoxyribonucleic acid) template of the HCV genome (BMS strain) was constructed from DNA fragments obtained by reverse transcription-PCR (RT-PCR) of serum RNA (ribonucleic acid) and using primers selected on the basis of homology between other genotype 1a strains.
The H77 and J4L6S strains were used for production of recombinant NS3/4A protease complexes. […] Briefly, a three-lysine solubilizing tail was added at the 3′-end of the NS4A coding region. […] Briefly, the NS3/4A protease complex expression was induced with 0.5 millimolar (mM) Isopropyl β-D-1-thiogalactopyranoside (IPTG) for 22 hours (h) at 20° C. […] The cells were resuspended in lysis buffer (10 mL/g) consisting of 25 mM N-(2-Hydroxyethyl)Piperazine-N′-(2-Ethane Sulfonic acid) (HEPES), pH 7.5, 20% glycerol, 500 mM Sodium Chloride (NaCl), 0.5% Triton X-100, 1 microgram/milliliter (“μg/mL”) lysozyme, 5 mM Magnesium Chloride (MgCl2), 1 gg/ml DnaseI, 5 mM β-Mercaptoethanol (βME), Protease inhibitor—Ethylenediamine Tetraacetic acid (EDTA) free (Roche), homogenized and incubated for 20 minutes (min) at 4° C. The homogenate was sonicated and clarified by ultra-centrifugation at 235000 g for 1 h at 4° C. Imidazole was added to the supernatant to a final concentration of 15 mM and the pH adjusted to 8.0. The crude protein extract was loaded on a Nickel-Nitrilotriacetic acid (Ni-NTA) column pre-equilibrated with buffer B (25 mM HEPES, pH 8.0, 20% glycerol, 500 mM NaCl, 0.5% Triton X-100, 15 mM imidazole, 5 mM βME). The sample was loaded at a flow rate of 1 mL/min. The column was washed with 15 column volumes of buffer C (same as buffer B except with 0.2% Triton X-100). The protein was eluted with 5 column volumes of buffer D (same as buffer C except with 200 mM Imidazole).
NS3/4A protease complex-containing fractions were pooled and loaded on a desalting column Superdex-S200 pre-equilibrated with buffer D (25 mM HEPES, pH 7.5, 20% glycerol, 300 mM NaCl, 0.2% Triton X-100, 10 mM βME). Sample was loaded at a flow rate of 1 mL/min. NS3/4A protease complex-containing fractions were pooled and concentrated to approximately 0.5 mg/ml.
The enzyme was stored at −80° C., thawed on ice and diluted prior to use in assay buffer. […] The sequence of this peptide is loosely based on the NS4A/NS4B natural cleavage site for the HCV NS3 protease except there is an ester linkage rather than an amide bond at the cleavage site. The peptide substrate was incubated with one of the three recombinant NS3/4A protease complexes, in the absence or presence of a compound of the present invention, and the formation of fluorescent reaction product was followed in real time using a Cytofluor Series 4000.
Assay buffer: 50 mM HEPES, pH 7.5; 0.15 M NaCl; 0.1% Triton; 15% Glycerol; 10 mM βME. Substrate: 2 μM final concentration (from a 2 mM stock solution in DMSO stored at −20° C.). HCV NS3/4A protease type 1a (1b), 2-3 nM final concentration (from a 5 μM stock solution in 25 mM HEPES, pH 7.5, 20% glycerol, 300 mM NaCl, 0.2% Triton-X100, 10 mM βME).
The assay was performed in a 96-well polystyrene black plate from Falcon. Each well contained 25 μl NS3/4A protease complex in assay buffer, 50 μl of a compound of the present invention in 10% DMSO/assay buffer and 25 μl substrate in assay buffer. A control (no compound) was also prepared on the same assay plate.

The test system of test [2] is HCV replicon (strain 1b) in Huh7 cells. The test can be described thus: microbe, parasite or virus in culture. Type of test: cell-based. The following applies: Hepatitis C virus, Huh-7, 96 h; Huh7 cells expressing HCV replicon, 4 days; activity range class. An excerpt:
This system enabled us to evaluate the effects of our HCV Protease compounds on HCV RNA replication. Briefly, using the HCV strain 1b sequence described in the Lohmann paper (Assession number: AJ238799), an HCV cDNA was generated encoding the 5′ internal ribosome entry site (IRES), the neomycin resistance gene, the EMCV (encephalomyocarditis virus)-IRES and the HCV nonstructural proteins, NS3-NS5B, and 3′ non-translated region (NTR). In vitro transcripts of the cDNA were transfected into the human hepatoma cell line, Huh7. […] Resulting cell lines were characterized for positive and negative strand RNA production and protein production over time.
Huh7 cells, constitutively expressing the HCV replicon, were grown in Dulbecco's Modified Eagle Media (DMEM) containing 10% Fetal calf serum (FCS) and 1 mg/ml G418 (Gibco-BRL). Cells were seeded the night before (1.5×10^4 cells/well) in 96-well tissue-culture sterile plates. Compound and no compound controls were prepared in DMEM containing 4% FCS, 1:100 Penicillin/Streptomysin, 1:100 L-glutamine and 5% DMSO in the dilution plate (0.5% DMSO final concentration in the assay). Compound/DMSO mixes were added to the cells and incubated for 4 days at 37° C. After 4 days, plates were rinsed thoroughly with Phosphate-Buffered Saline (PBS) (3 times 150 μl). The cells were lysed with 25 μl of a lysis assay reagent containing the FRET peptide (RET S1, as described for the in vitro enzyme assay). The lysis assay reagent was made from 5× cell Luciferase cell culture lysis reagent (Promega #E153A) diluted to 1× with distilled water, NaCl added to 150 mM final, the FRET peptide diluted to 10 μM final from a 2 mM stock in 100% DMSO. The plate was then placed into the Cytofluor 4000 instrument which had been set to 340 nm excitation/490 nm emission, automatic mode for 21 cycles and the plate read in a kinetic mode. EC50 determinations were carried out as described for the IC50 determinations.
The replicon construct described for our FRET assay was modified by replacing the resistance gene neomycin with the Blasticidin-resistance gene fused to the N-terminus of the humanized form of Renilla luciferase (restriction sites Asc1/Pme1 used for the subcloning). […] The luciferase reporter assay was set up by seeding huh7 cells the night before at a density of 2×10^6 cells per T75 flask. Cells were washed the next day with 7.5 ml Opti-MEM. Following the Invitrogen protocol, 40 μl DMRIE-C was vortexed with 5 ml Opti-MEM before adding 5 μg HCV reporter replicon RNA. The mix was added to the washed huh7 cells and left for 4 h at 37° C. In the mean time, serial compound dilutions and no compound controls were prepared in DMEM containing 10% FCS and 5% DMSO in the dilution plate (0.5% DMSO final concentration in the assay). Compound/DMSO mixes were added to each well of a 24-well plate. After 4 h, the transfection mix was aspirated, and cells washed with 5 ml of Opti-MEM before trypsinization. Trypsinized cells were resuspended in 10% DMEM and seeded at 2×10^4 cells/well in the 24-well plates containing compound or no compound controls. Plates were incubated for 4 days. After 4 days, media was removed and cells washed with PBS. 100 μl 1× Renilla Luciferase Lysis Buffer (Promega) was immediately added to each well and the plates either frozen at −80° C. for later analysis, or assayed after 15 min of lysis. Lysate (40 μl) from each well was transferred to a 96-well black plate (clear bottom) followed by 200 μl 1× Renilla Luciferase assay substrate. Plates were read immediately on a Packard TopCount NXT using a luminescence program.
The values were graphed and analyzed using XLFit to obtain the EC50 value.

Molecules are shown by their SMILES. A value given as a limit tells only on which side of the number the result lay.

T1 sequence (P27958 1027-1657, one chain of several): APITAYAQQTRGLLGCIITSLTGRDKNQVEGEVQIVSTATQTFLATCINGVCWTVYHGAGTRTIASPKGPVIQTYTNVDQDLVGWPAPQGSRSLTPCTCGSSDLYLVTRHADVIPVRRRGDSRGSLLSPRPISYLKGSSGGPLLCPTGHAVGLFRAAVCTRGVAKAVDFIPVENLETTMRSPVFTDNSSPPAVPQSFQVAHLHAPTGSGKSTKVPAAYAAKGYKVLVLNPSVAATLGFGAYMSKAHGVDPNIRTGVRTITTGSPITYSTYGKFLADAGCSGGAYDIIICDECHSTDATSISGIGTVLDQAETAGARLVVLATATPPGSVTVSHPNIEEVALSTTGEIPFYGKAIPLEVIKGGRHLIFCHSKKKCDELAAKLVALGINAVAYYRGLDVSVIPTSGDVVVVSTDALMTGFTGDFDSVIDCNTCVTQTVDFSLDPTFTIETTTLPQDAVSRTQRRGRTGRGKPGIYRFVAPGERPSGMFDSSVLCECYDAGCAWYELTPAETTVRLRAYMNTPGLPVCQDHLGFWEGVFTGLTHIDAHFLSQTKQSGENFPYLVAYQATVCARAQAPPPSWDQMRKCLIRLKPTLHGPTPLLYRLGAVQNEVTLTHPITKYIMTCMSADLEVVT

With `C=C[C@@H]1C[C@]1(NC(=O)[C@@H]1C[C@@H](Oc2nccc3cc(OC)ccc23)CN1C(=O)[C@@H](NC(=O)OC(C)(C)C)C(C)(C)C)C(=O)NS(=O)(=O)c1cc(Cl)c(Cl)s1` [Compound 1001], the IC50 in test [1] was less than 100 nM. This compound had an EC50 in test [2] of 1000 to 10000 nM.

`C=C[C@@H]1C[C@]1(NC(=O)[C@@H]1C[C@@H](Oc2nccc3cc(OC)ccc23)CN1C(=O)[C@@H](NC(=O)OC(C)(C)C)C(C)(C)C)C(=O)NS(=O)(=O)c1sc(C)nc1C` [Compound 1003]: the concentration for half-maximal inhibition (IC50) in test [1] is 100 to 1000 nM. The compound further returned a concentration for a half-maximal effect (EC50) in test [2] of 100 to 1000 nM.

As for `C=C[C@@H]1C[C@]1(NC(=O)[C@@H]1C[C@@H](Oc2nccc3cc(OC)ccc23)CN1C(=O)[C@@H](NC(=O)OC(C)(C)C)C(C)(C)C)C(=O)NS(=O)(=O)c1c(C)nn(C)c1Cl` [Compound 1004], the IC50 in test [1] fell in the range of 100 to 1000 nM. Also, the half-maximal effective concentration (EC50) in test [2] was 100 to 1000 nM.

`C=C[C@@H]1C[C@]1(NC(=O)[C@@H]1C[C@@H](Oc2nccc3cc(OC)ccc23)CN1C(=O)[C@@H](NC(=O)OC(C)(C)C)C(C)(C)C)C(=O)NS(=O)(=O)c1cn(C)cn1` [Compound 1005]: the half-inhibitory concentration (IC50) in test [1] fell in the range of 1000 to 10000 nM. This compound also returned an EC50 in test [2] of 1000 to 10000 nM.

On to `C=C[C@@H]1C[C@]1(NC(=O)[C@@H]1C[C@@H](Oc2nccc3cc(OC)ccc23)CN1C(=O)[C@@H](NC(=O)OC(C)(C)C)C(C)(C)C)C(=O)NS(=O)(=O)c1cccs1` [Compound 1006], for which the half-maximal inhibitory concentration (IC50) in test [1] is less than 100 nM. For the same compound, the EC50 in test [2] lay within 100 to 1000 nM.

In the case of `C=C[C@@H]1C[C@]1(NC(=O)[C@@H]1C[C@@H](Oc2nccc3cc(OC)ccc23)CN1C(=O)[C@@H](NC(=O)OC(C)(C)C)C(C)(C)C)C(=O)NS(=O)(=O)c1ccccc1` [Compound 1007], the half-maximal inhibitory concentration (IC50) in test [1] is less than 100 nM. In test [2], the EC50 is 100 to 1000 nM.

Take `C=C[C@@H]1C[C@]1(NC(=O)[C@@H]1C[C@@H](Oc2nccc3cc(OC)ccc23)CN1C(=O)[C@@H](NC(=O)OC(C)(C)C)C(C)(C)C)C(=O)NS(=O)(=O)c1nnc(NC(C)=O)s1` [Compound 1011]: in test [1], the IC50 was less than 100 nM. The compound further came in with an EC50 in test [2] of 1000 to 10000 nM.

As to `C=C[C@@H]1C[C@]1(NC(=O)[C@@H]1C[C@@H](Oc2nccc3cc(OC)ccc23)CN1C(=O)[C@@H](NC(=O)OC(C)(C)C)C(C)(C)C)C(=O)NS(=O)(=O)c1c(C)noc1C` [Compound 1012], the IC50 in test [1] lay within 1000 to 10000 nM.

Source of the values: patent US7309708B2, “Hepatitis C virus inhibitors” (priority 2003, dated 2007).
